The experiment concerns the target Human immunodeficiency virus type 1 protease (Human immunodeficiency virus 1, UniProt Q72874). The experiment is described as follows: Compound was evaluated for the inhibition of recombinant HIV-1 protease at 37 degrees C and pH of 6.

For the compound `[O-][S+]1C[C@](CO)(Cc2ccccc2)C(O)[C@@](CO)(Cc2ccccc2)C1` (stereo in doubt; (+)7), the Ki came out at 7 µM.

`O[C@H]1C[C@H](Cc2ccccc2)[C@H](O)[C@@H](Cc2ccccc2)C1`: the Ki was more than 2000 µM.

Turning to `O=C1C[C@](CO)(Cc2ccccc2)C(O)[C@@](CO)(Cc2ccccc2)C1`, the Ki came to 62 µM.

Take `OC[C@]1(Cc2ccccc2)C[C@H](O)C[C@](CO)(Cc2ccccc2)[C@@H]1O`: the Ki is 830 µM.

Turning to `O=C1C[C@](O)(Cc2ccccc2)C(O)[C@@](O)(Cc2ccccc2)C1`, the Ki worked out at 10 µM.

Regarding `OC1[C@@](O)(Cc2ccccc2)CCC[C@]1(O)Cc1ccccc1`, the Ki was more than 2000 µM.

In the case of `[O-][S+]1C[C@](CO)(Cc2ccccc2)C(O)[C@@](CO)(Cc2ccccc2)C1` (stereo in doubt; (-)7), the inhibition constant (Ki) was found to be 19 µM.

Consider `OC[C@]1(Cc2ccccc2)C[C@H](O)C[C@](CO)(Cc2ccccc2)[C@H]1O`, for which the Ki came to 48 µM.

One may read the Ki as the equilibrium dissociation constant of an inhibitor or competing ligand from its target.

The values above are taken from ChEMBL document CHEMBL1152053, “Nonpeptide HIV protease inhibitors designed to replace a bound water” (Bioorg Med Chem Lett, 1993).
